This passage reports Retention and Release results from patent publication US8476036B2, “Nonluminogenic assay for living cells” (Promega Corporation, priority 2004, dated 2013).

Marks after values point to notes of the source that are not given here. Numbered stars: 1 amine (or outer) side, 2 acyl side, 3 side chain; on linkers, the order of the positions; unused ones are H or OH. Square brackets hold non-standard residues; d marks the D form. Peptide text beside a SMILES is read from it. * marks the point of attachment. AFC = O=c1cc(C(F)(F)F)c2ccc(N*)cc2o1; Glutaryl = O=C(CCCC(=O)[*:2])[*:1]; AMC = Cc1cc(=O)oc2cc(N*)ccc12; Suc = O=C(CCC(=O)[*:2])[*:1]; Cbz = O=C(OCc1ccccc1)*

For assay [1], the system named is HL-60 or Jurkat. Briefly: Protease retention substrate selectivity, untreated viable cells. The arrangement: key: None denotes no statistical activity above control population.; (+) to (+++++) denotes the range of activity above control population from modest to robust; (+) to (+++++) denotes the range of activity above control population from modest to robust; (+) to (+++++) denotes the range of activity above control population from modest to robust; (+) to (+++++) denotes the range of activity above control population from modest to robust; (+) to (+++++) denotes the range of activity above control population from modest to robust. To be noted: substrate cleavage activity above control in untreated viable cells; 15-30 minutes at 37° C. Type of assay: cell-based. The source says:
(§1) Ala-Ala-Phe-AMC was obtained from Promega. Z-Leu-Leu-Val-Tyr-aminoluciferin (LLVY corresponds to SEQ ID NO:18), Z-Leu-Arg-aminoluciferin, Z-Phe-Arg-aminoluciferin, Ala-Ala-Phe-aminoluciferin, (Ala-Ala-Phe)2-R110, and (Gly-Phe)2-R110 were synthesized by Promega Biosciences. Suc-Ala-Ala-Phe-AMC, H-Phe-AMC, H-Tyr-AMC, Glutyl-Ala-Ala-Phe-AMC (EMF corresponds to SEQ ID NO:32), H-Gly-Phe-AMC, Z-Gly-Ala-Met-AMC, Suc-Leu-Leu-Val-Tyr-AMC (LLVY corresponds to SEQ ID NO:18), D-Ala-Leu-Lys-AMC, H-Gly-Ala-AMC, H-Gly-Gly-AMC, Suc-Ala-Ala-Phe-AMC, Z-Arg-Leu-Arg-Gly-Gly-AMC (RLRGG corresponds to SEQ ID NO:29), Z-Leu-Arg-Gly-Gly-AMC (LRGG corresponds to SEQ ID NO:30) and Ac-Ala-Ala-Tyr-AMC were sourced from Bachem. Gly-Phe-AFC, Pro-Phe-Arg-AMC, Gly-Gly-Leu-AMC, and Ser-Tyr-AFC were obtained from Calbiochem. Z-Phe-Arg-AMC and Suc-Arg-Pro-Phe-His-Leu-Leu-Val-Tyr-AMC (RPHLLVY corresponds to SEQ ID NO:31) were purchased from Sigma.
(§2) All substrates were solubilized in DMSO from 10 to 100 mM depending upon inherent solubility. Fluorescent substrates were diluted to 100 μM to 1 mM in 10 mM Hepes, pH 7.5 or matched cell culture medium with 10% serum and added in 1/10th volumes to lysed (freeze fractured, sonicated, or detergent) or untreated viable cells in white-walled, clear bottomed 96-well plates. HL-60 or Jurkat were used in the experimentation interchangeably because of their easily manipulated suspension phenotype. Plates were incubated for 15-30 minutes at 37° C. prior to measuring fluorescence by the CYTOFLUOR® II.
(§3) Luminescent substrates were added to a luciferin detection cake (Promega V859A) resuspended in 2 ml 10 mM Hepes, pH 7.5 to 500 μM. ⅕^th volume of the proluminescent reaction mixes were added to lysed (freeze fractured, sonicated, or detergent) or untreated viable cells in white-walled, clear bottomed 96-well plates. Again, HL-60 or Jurkat were used in the experimentation interchangeably. Plates were incubated at 37° C. in a MeCour' circulating heat block controlled by a Caron 2050W exchange unit. Luminescence was measured between 15 and 30 minutes (signal steady state).
(§4) A broad variety of proteolytic substrates were examined in an effort to characterize potential substrate preferences for protease release or retention in compromised or viable cells (see Table 4). […] Non-blocked substrates (H- and the like) were examined to include the contribution of aminopeptidase activities. From this panel, at least three proteolytic profiles emerged: an aminopeptidase-like activity preferring unblocked Ala-Ala-Phe tripeptide, a proteosomal (chymotrypsin-like) activity measured by release of blocked Leu-Leu-Val-Tyr (SEQ ID NO:18) peptides, and an exceedingly labile activity by Gly-Phe, Gly-Ala, Phe-, Tyr- or Gly-Gly-Leu substrates. The latter activities were only measurable in viable, intact cells. Of further significance is that several fluorophores or proluminescent labels can be used to detect these activities, ultimately allowing for enhanced downstream multiplexing flexibility.

For assay [2], the system named is HL-60 or Jurkat. The assay can be described thus: Protease release substrate selectivity, lysed (freeze fractured, sonicated, or detergent) cells. Type of assay: cell-based. The arrangement: key: None denotes no statistical activity above control population.; (+) to (+++++) denotes the range of activity above control population from modest to robust; (+) to (+++++) denotes the range of activity above control population from modest to robust; (+) to (+++++) denotes the range of activity above control population from modest to robust; (+) to (+++++) denotes the range of activity above control population from modest to robust; (+) to (+++++) denotes the range of activity above control population from modest to robust. To be noted: substrate cleavage activity above control in lysed cells; 15-30 minutes at 37° C.
Text: as §1, §2, §3, §4

`CC(N)C(=O)NC(C)C(=O)NC(Cc1ccccc1)C(=O)Nc1ccc2nc(C3=NC(C(=O)O)CS3)sc2c1` (stereo not drawn) [Ala-Ala-Phe-Aminoluc, Ala-Ala-Phe-aminoluciferin]: the Retention result with HL-60 or Jurkat [1] is listed as “None”. Moreover, in the assay on HL-60 or Jurkat [2], the Release result is “+++++”.

On to `Cc1cc(=O)oc2cc(NC(=O)CNC(=O)CN)ccc12` [H-Gly-Gly-AMC] (H-Gly-Gly-{AMC}), for which the Retention result in the assay with HL-60 or Jurkat [1] is “None”. Moreover, the Release entry in the assay with HL-60 or Jurkat [2] is “None”.

As to `Cc1cc(=O)oc2cc(NC(=O)[C@H](Cc3ccccc3)NC(=O)[C@H](C)NC(=O)[C@H](C)NC(=O)CCCC(=O)O)ccc12` [Gluty-Ala-Ala-Phe-AMC, Glutyl-Ala-Ala-Phe-AMC] (Glutaryl-Ala-Ala-Phe-{AMC}), the Retention result with HL-60 or Jurkat [1] is on record as “None”. For the same molecule, the Release entry in the assay on HL-60 or Jurkat [2] is on record as “None”.

On to `N[C@@H](CO)C(=O)N[C@@H](Cc1ccc(O)cc1)C(=O)Nc1ccc2c(C(F)(F)F)cc(=O)oc2c1` [Ser-Tyr-AFC] (H-Ser-Tyr-{AFC}), for which the Retention result with HL-60 or Jurkat [1] is recorded as “None”. In addition, the Release entry with HL-60 or Jurkat [2] is given as “None”.

Regarding `CC(N)C(=O)NC(C)C(=O)NC(Cc1ccccc1)C(=O)Nc1ccc2c(c1)Oc1cc(NC(=O)C(Cc3ccccc3)NC(=O)C(C)NC(=O)C(C)N)ccc1C21OC(=O)c2ccccc21` (stereo not drawn) [(Ala-Ala-Phe) 2 R110, (Ala-Ala-Phe)2-R110], the Retention entry in the assay on HL-60 or Jurkat [1] is given as “None”. In the assay with HL-60 or Jurkat [2], the Release result is listed as “+++++”.

Take “Suc-RPFHLLVY-{AMC} [S-R-P-F-H-L-L-V-Y-AMC]”: the Retention result in the assay with HL-60 or Jurkat [1] is “None”. In addition, the Release entry in the assay with HL-60 or Jurkat [2] is “None”.

For the molecule `Cc1cc(=O)oc2cc(NC(=O)[C@H](CCCN=C(N)N)NC(=O)[C@H](Cc3ccccc3)NC(=O)[C@@H]3CCCN3)ccc12` [H-Pro-Phe-Arg-AMC] (H-Pro-Phe-Arg-{AMC}), the Retention entry in the assay with HL-60 or Jurkat [1] is “None”. For the same molecule, in the assay with HL-60 or Jurkat [2], the Release result is listed as “None”.

As to `Cc1cc(=O)oc2cc(NC(=O)[C@H](Cc3ccccc3)NC(=O)[C@H](C)NC(=O)[C@H](C)NC(=O)CCC(=O)O)ccc12` [Suc-Ala-Ala-Phe-AMC] (Suc-Ala-Ala-Phe-{AMC}), the Retention result with HL-60 or Jurkat [1] is “None”. Moreover, in the assay on HL-60 or Jurkat [2], the Release result is “None”.

As to `Cc1cc(=O)oc2cc(NC(=O)[C@H](CCCCN)NC(=O)[C@H](CC(C)C)NC(=O)[C@@H](C)N)ccc12` [H-D-Ala-Leu-Lys-AMC] (H-[dA]-Leu-Lys-{AMC}), the Retention entry in the assay with HL-60 or Jurkat [1] was “None”. The Release entry in the assay with HL-60 or Jurkat [2] is “None”.

In the case of `Cc1cc(=O)oc2cc(NC(=O)[C@H](CC(C)C)NC(=O)CNC(=O)CNC(=O)OCc3ccccc3)ccc12` [Z-Gly-Gly-Leu-AMC] (Cbz-Gly-Gly-Leu-{AMC}), the Retention result in the assay on HL-60 or Jurkat [1] is reported as “++*”. Moreover, the Release entry in the assay with HL-60 or Jurkat [2] is “None”.

`Cc1cc(=O)oc2cc(NC(=O)C(Cc3ccccc3)NC(=O)C(C)NC(=O)C(C)N)ccc12` (stereo not drawn) [Ala-Ala-Phe-AMC] (H-Ala-Ala-Phe-{AMC}; configuration not given here): the Retention result in the assay with HL-60 or Jurkat [1] is recorded as “None”. The Release result with HL-60 or Jurkat [2] is “+++++”.

On to `Cc1cc(=O)oc2cc(NC(=O)[C@@H](N)Cc3ccccc3)ccc12` [H-Phe-AMC], for which, in the assay on HL-60 or Jurkat [1], the Retention entry is recorded as “+++”. Besides, the Release entry in the assay on HL-60 or Jurkat [2] is listed as “None”.

For the molecule `Cc1cc(=O)oc2cc(NC(=O)CNC(=O)CNC(=O)[C@H](CCCN=C(N)N)NC(=O)[C@H](CC(C)C)NC(=O)[C@H](CCCN=C(N)N)NC(=O)OCc3ccccc3)ccc12` [Z-Arg-Leu-Arg-Gly-Gly-AMC], the Retention result in the assay on HL-60 or Jurkat [1] is given as “None”. Besides, the Release result in the assay with HL-60 or Jurkat [2] is recorded as “None”.

As for `Cc1cc(=O)oc2cc(NC(=O)CNC(=O)CNC(=O)[C@H](CCCN=C(N)N)NC(=O)[C@H](CC(C)C)NC(=O)OCc3ccccc3)ccc12` [Z-Leu-Arg-Gly-Gly-AMC] (Cbz-LRGG-{AMC}), the Retention result in the assay on HL-60 or Jurkat [1] is “None”. Moreover, the Release entry in the assay on HL-60 or Jurkat [2] is reported as “None”.

For `Cc1cc(=O)oc2cc(NC(=O)C(C)NC(=O)CN)ccc12` (stereo not drawn) [H-Gly-Ala-AMC], in the assay on HL-60 or Jurkat [1], the Retention entry is “++”. For the same molecule, the Release entry in the assay with HL-60 or Jurkat [2] was “None”.

Regarding `CC(C)C[C@H](NC(=O)OCc1ccccc1)C(=O)N[C@@H](CCCNC(=N)N)C(=O)Nc1ccc2nc(C3=N[C@@H](C(=O)O)CS3)sc2c1` [Z-Leu-Arg-Aluc, Z-Leu-Arg-aminoluciferin], the Retention result with HL-60 or Jurkat [1] is given as “None”. For the same molecule, the Release entry in the assay on HL-60 or Jurkat [2] was “None”.

For the molecule `Cc1cc(=O)oc2cc(NC(=O)[C@@H](N)Cc3ccc(O)cc3)ccc12` [H-Tyr-AMC], the Retention result in the assay on HL-60 or Jurkat [1] is recorded as “++”. Further, the Release entry in the assay with HL-60 or Jurkat [2] is “None”.

On to `NCC(=O)N[C@@H](Cc1ccccc1)C(=O)Nc1ccc2c(C(F)(F)F)cc(=O)oc2c1` [Gly-Phe-AFC] (H-Gly-Phe-{AFC}), for which the Retention entry in the assay on HL-60 or Jurkat [1] is listed as “+++++”. Also, the Release result in the assay on HL-60 or Jurkat [2] was “None”.

In the case of `Cc1cc(=O)oc2cc(NC(=O)[C@H](Cc3ccccc3)NC(=O)CN)ccc12` [Gly-Phe-AMC, H-Gly-Phe-AMC] (H-Gly-Phe-{AMC}), the Retention entry in the assay on HL-60 or Jurkat [1] is “++”. In addition, the Release entry in the assay on HL-60 or Jurkat [2] was “None”.

On to `CC(=O)NC(C)C(=O)NC(C)C(=O)NC(Cc1ccc(O)cc1)C(=O)Nc1ccc2c(C)cc(=O)oc2c1` (stereo not drawn) [Ac-Ala-Ala-Tyr-AMC] (Ac-Ala-Ala-Tyr-{AMC}; configuration not given here), for which, in the assay on HL-60 or Jurkat [1], the Retention result is listed as “None”. Also, in the assay on HL-60 or Jurkat [2], the Release result was “None”.

For `Cc1cc(=O)oc2cc(NC(=O)C(CCCN=C(N)N)NC(=O)C(Cc3ccccc3)NC(=O)OCc3ccccc3)ccc12` (stereo not drawn) [Z-Phe-Arg-AMC] (Cbz-Phe-Arg-{AMC}; configuration not given here), the Retention result with HL-60 or Jurkat [1] is on record as “None^1”. In addition, in the assay on HL-60 or Jurkat [2], the Release entry was “None”.

As to `N=C(N)NCCCC(NC(=O)C(Cc1ccccc1)NC(=O)OCc1ccccc1)C(=O)Nc1ccc2nc(C3=NC(C(=O)O)CS3)sc2c1` (stereo not drawn) [Z-Phe-Arg-Aluc, Z-Phe-Arg-aminoluciferin], the Retention entry in the assay with HL-60 or Jurkat [1] was “None”. The Release result with HL-60 or Jurkat [2] is “None”.

As to `Cc1cc(=O)oc2cc(NC(=O)[C@H](Cc3ccc(O)cc3)NC(=O)[C@@H](NC(=O)[C@H](CC(C)C)NC(=O)[C@H](CC(C)C)NC(=O)CCC(=O)O)C(C)C)ccc12` [Suc-Leu-Leu-Val-Tyr-AMC] (Suc-LLVY-{AMC}), in the assay on HL-60 or Jurkat [1], the Retention result was “None”. Besides, in the assay on HL-60 or Jurkat [2], the Release entry was “+”.

For the molecule `CSCC[C@H](NC(=O)[C@H](C)NC(=O)CNC(=O)OCc1ccccc1)C(=O)Nc1ccc2c(C)cc(=O)oc2c1` [Z-Gly-Ala-Met-AMC] (Cbz-Gly-Ala-Met-{AMC}), the Retention result with HL-60 or Jurkat [1] was “None”. Also, in the assay with HL-60 or Jurkat [2], the Release entry is listed as “None”.
